In the SangsterLogP compilation:

Key:
[1] = method code SF-GLC, from DOI: 10.1016/s0021-9673(99)01009-2, PMID: 10669289

Compound | logP | logP [1]
C/C=C/c1ccc(O)c(OC)c1 | 3.04 | –
CC(C)=CCC[C@@H](C)CC=O | 3.83 | –
CC1=CCC2[C@H](C1=O)C2(C)C (some centres not stated) | 2.42 | –
CC1=CCC2C[C@H]1C2(C)C | – | 4.44
CC1(C)C2CCC(CN)C1C2 (configuration not stated) | 2.05 | –
C=C(C)C1CC=C(C)C(O)C1 (configuration not stated) | – | 2.85
CC1(C)[C@H]2CC[C@@H](CO)[C@@H]1C2 | 3.41 | –
C=C(C)[C@@H]1CC=C(CO)CC1 | 3.17 | –
CC1=CCC(C(C)(C)O)CC1 (configuration not stated) | – | 3.28
CC1=CC=C(C(C)C)CC1 | 4.25 | –
CC12CCC(CC1)C(C)(C)O2 | 2.84 | –
CC1=CCC(C(C)(C)O)CC1O (configuration not stated) | – | 1.11
C=C(C)C1CCC(C)C(=O)C1 (configuration not stated) | – | 2.85
CC(=O)OC/C=C(\C)CCC=C(C)C | 4.04 | –
C=CCc1ccc(OC)c(OC)c1 | 3.45 | –
C=C(C)C1CCC2(C)OC2C1 (configuration not stated) | 3.2 | –
C=C(C)[C@H]1CC[C@H](C)[C@@H](O)C1 | 3.21 | –
CC1=CCC(O)(C(C)C)CC1 (configuration not stated) | – | 2.8
CC(C)=C1CC[C@@H](C)CC1=O | 3.08 | –
Cc1ccc(C(C)C)cc1O | 3.49 | –
CC1=C[C@H](O)[C@H]2C[C@@H]1C2(C)C | 3.16 | –

Compound | logP | logP [1]
CC(C)=CCC/C(C)=C/CO | 3.56 | –
CC1=CCC(=C(C)C)CC1 | 4.24 | –
CC12CC[C@@H](C1)C(C)(C)C2=O (stereo in doubt) | 3.17 | –
CC(C)C12CCC(C)(CC1)O2 | 2.97 | –
CC1(C)C2CCC1(C)C(O)C2 (configuration not stated) | 3.01 | –
CC1(C)[C@@H]2CC=C(C=O)[C@H]1C2 | 2.98 | –
CC(=O)C=CC1=C(C)CCCC1(C)C | 3.84 | –
C=C(C)[C@H]1CC=C(C)C(=O)C1 | – | 2.71
C=CC1(C)CCC(C(C)(C)O)O1 (configuration not stated) | 2.43 | –
C=CC(C)(CCC=C(C)C)OC(C)=O (configuration not stated) | 3.93 | –
CC12CCC(CC1=O)C2(C)C (configuration not stated) | 2.74 | –
CC(=O)/C=C/[C@H]1C(C)=CCCC1(C)C | 3.85 | –
CC(=O)OC(C)(C)C1C=CC(C)CC1 (configuration not stated) | – | 3.96
C=C(C)[C@@H]1CC=C(C=O)CC1 | 3.13 | –
CC(C)[C@@H]1CC[C@@H](C)CC1=O | 3.05 | –
CC1=CC(=O)[C@H]2CC1C2(C)C | 2.23 | –
CC1(C)[C@H]2CC=C(CO)[C@@H]1C2 | 3.22 | –
CC1=CCC2C(C1)C2(C)C (configuration not stated) | 4.38 | –
CC1=CC2C(CC1)C2(C)C (configuration not stated) | 4.44 | –
CC1=CC(=O)C(C(C)C)CC1 (configuration not stated) | 2.85 | –
CC(=O)OC1C[C@H](C)CCC1C(C)C (some centres not stated) | 4 | –
